Test results taken from patent publication US20260041683A1, “Compounds with Anti-Acinetobacter Baumannii Activity” (University of Kentucky Research Foundation, priority 2022, published 2026).
Values after ≈ are worked out from the molar mass of the structure shown. Read-outs that look alike come from different tables or passages of the source.

What was measured:
[1] = system: murine red blood cells (mRBCs); experiment: Hemolysis assay; format: cell-based; details: 32 g/mL as printed, 37° C.
Method: The cells were then washed using PBS (3×) by spinning at 1,000 rpm for 7 min. After washing, mRBCs were counted using a hemacytometer and diluted in PBS to 5×10^7 cells/mL. All the tested compounds were diluted (32 μg/mL and 8 μg/mL) in PBS in Eppendorf tubes (500 μL volume) and 100 μL were added to each of the columns of the 96-well plate except for column 1. A positive control (1% Triton-X®, TX), a negative control (DMSO), and wells with no mRBCs to account for any background absorbance were used in the 96-well plate. After the addition of the compounds to the plate, 100 μL of mRBCs were added to each well and plates were incubated at 37° C. for 30 min. The plates were then spun at 1,000 rpm for 10 min till the mRBCs settle at the bottom of the plates. 100 μL of supernatant was then transferred to a new 96-well plate and the absorbance at 500 nm was read using a spectrophotometer (SpectraMax M5). Percent hemolysis was calculated using the following equation after subtraction of the background absorbance.
To test the safety of the compounds, they were for exampled for hemolytic effect on murine red blood cells (FIG. 7).

[2] = system: human embryonic kidney cells (HEK-293); experiment: Mammalian cytotoxicity assay (resazurin); details: HEK-293, 32 μg/mL (printed 32 g/mL for 3e), 24 h
[3] = system: all 43 strains of A. baumannii (41 CDC strains and 2 ATCC strains); experiment: MIC value statistics for all A. baumannii strains; format: cell-based, Acinetobacter baumannii; details: of 43 A. baumannii strains
Summary of the method: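 Broth microdilution in MH broth against CDC AR Isolate Bank and ATCC strains. Inoculum from overnight MH plates (37 °C), suspended to OD600 ~0.5, then diluted 1:1000 into serial twofold compound dilutions. Sterile and growth controls included per row.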

M. smegmatis = experiment: MIC determination; format: cell-based, Mycobacterium smegmatis; details: Mycolicibacterium smegmatis; Table 4
Y. pestis CO92 = experiment: microbe, parasite or virus in culture; format: cell-based; details: Yersinia pestis, CO92, read-out: MIC Y. pestis CO92
K. pneumoniae ATCC 27736 = experiment: MIC determination; format: cell-based; details: Klebsiella pneumoniae, ATCC27736; Table 3; read-out: MIC K. pneumoniae ATCC 27736
S. aureus ATCC 25923 = experiment: MIC determination; format: cell-based; details: Staphylococcus aureus, ATCC25923
E. cloacae ATCC 13047 = experiment: MIC determination; format: cell-based; details: Enterobacter cloacae, ATCC13047; Table 4; read-out: MIC E. cloacae ATCC 13047
E. coli ATCC BAA 2469 = experiment: MIC determination; format: cell-based; details: Escherichia coli, BAA2469; Table 3
P. aeruginosa ATCC 27853 = experiment: MIC determination; format: cell-based; details: Pseudomonas aeruginosa, ATCC27853
B. anthracis Sterne F32 = experiment: microbe, parasite or virus in culture; format: cell-based; details: Bacillus anthracis
[4] = system: S. epidermidis ATCC 12228; experiment: MIC determination; format: cell-based; details: Staphylococcus epidermidis, ATCC12228
[5] = system: K. pneumoniae ATCC BAA 1705; experiment: MIC determination; format: cell-based; details: Klebsiella pneumoniae, BAA1705; Table 3
[6] = system: Ab ATCC BAA1605 (strain J, multidrug-resistant); experiment: MIC determination; format: cell-based; details: Acinetobacter baumannii
Summary of the method: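 Broth double-dilution MIC in Mueller-Hinton broth, 96-well plates, at least in duplicate. Inoculum: colonies grown overnight at 37 °C on MH plates, suspended to OD600 ~0.5 and diluted 1:1000 into serially doubly diluted compound.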

S. enterica ATCC 14028 = experiment: MIC determination; format: cell-based; details: Salmonella enterica, ATCC14028
[7] = system: all 41 multidrug-resistant Ab strains (#273-313) from the CDC and FDA AR Bank; experiment: MIC determination, panel statements; format: cell-based; details: Acinetobacter baumannii; Table 2 note; almost all of the 41 strains; read-out: MIC values against almost all strains
Method: All bacterial strains listed above were stored at −80° C. All strains were streaked on Mueller-Hinton (MH) plates and allowed to grow at 37° C. overnight. Enough colonies were scraped from the plate and suspended in MH broth with vortexing to reach an attenuance at 600 nm (OD600) of ˜0.5. The resulting culture was diluted 1:1000 and added to the prepared serially doubly diluted compound solutions in 96-well plates. For M. smegmatis, a 1:100 dilution of the bacteria was done in MH. All MIC values were determined using 96-well plates with low evaporation seals at least in duplicate. For each row, one well was reserved for sterile control (which consisted of 200 μL of MH medium) and another well was reserved for growth control (which consisted of 100 μL of MH medium seeded with 100 μL of bacterial culture).
Then all 46 compounds were tested against a broad panel of all 41 Ab strains from the CDC and FDA Antibiotic Resistance (AR) Isolate Bank (Table 2; data shown for 2 representative compounds), which were all highly multidrug-resistant strains, including those resistant to colistin. […] The activity of the monohydrazides was not dependent on the extent (number of resistance mutations) or severity (antibiotic MIC) of resistance. All conclusions made from Table 1 remained valid for all compounds against these 41 additional Ab strains. […]

Ab ATCC 19606 (strain I) = experiment: MIC determination (double dilution, Mueller-Hinton broth); format: cell-based, Acinetobacter baumannii; details: Acinetobacter baumannii, ATCC19606
Ab ATCC 19606 [8] = experiment: Time-kill curves
E. coli MC1061 = experiment: MIC determination; format: cell-based; details: Escherichia coli; Table 5; Mueller-Hinton medium; D = E. coli MC1061; read-out: MIC strain D
Ab ATCC 19606 [9] = experiment: Development of resistance, 15-passage MIC assay; format: cell-based, Acinetobacter baumannii; details: Acinetobacter baumannii, ATCC19606, read-out: MIC before passaging

O=C(NNc1cccc(F)c1)c1ccc2ccccc2n1 [Compound 12a]
hemolysis [1]: 20% | inhibition of growth [2]: 40% | number of compound/strain combinations with MIC value 0.25 μg/mL [3]: 8 | number of compound/strain combinations with MIC value 0.5 μg/mL [3]: 21 | number of compound/strain combinations with MIC value 1 μg/mL [3]: 14

NC[C@H]1O[C@H](O[C@H]2[C@H](O)[C@@H](O[C@H]3O[C@H](CO)[C@@H](O)[C@H](N)[C@H]3O)[C@H](N)C[C@@H]2N)[C@H](O)[C@@H](O)[C@@H]1O [KAN, kanamycin, reference compound]
MIC (M. smegmatis): ≤ 0.03 µg/mL | MIC (Y. pestis CO92): 2.5 µg/mL (≈ 5.16 µM) | MIC (K. pneumoniae ATCC 27736): 4 µg/mL (≈ 8.26 µM) | MIC (S. aureus ATCC 25923; Table 4, read-out: MIC S. Aureus ATCC 25923): 0.63 µg/mL (≈ 1.3 µM) | MIC (E. cloacae ATCC 13047): 1.25 µg/mL (≈ 2.58 µM) | MIC (E. coli ATCC BAA 2469): > 128 µg/mL | MIC (P. aeruginosa ATCC 27853; Table 3, read-out: MIC P. aeruginosa ATCC 27853): > 128 µg/mL | MIC (B. anthracis Sterne F32; STERNEF32, read-out: MIC B. anthracis Sterne F32): > 160 µg/mL | MIC ([4]; Table 4, read-out: MIC S. epidermidis ATCC 12228): 0.63 µg/mL (≈ 1.3 µM) | MIC [5]: > 128 µg/mL | MIC ([6]; Table 1, multidrug-resistant strain, read-out: MIC Ab ATCC BAA 1605): 10 µg/mL (≈ 20.6 µM) | MIC ([6]; Table 3, positive control strain, read-out: MIC A. Baumannii ATCC BAA 1605): 32 µg/mL (≈ 66 µM) | MIC (S. enterica ATCC 14028; Table 4, read-out: MIC S. enterica ATCC 14028): 2.5 µg/mL (≈ 5.16 µM) | MIC [7]: > 10 µg/mL | MIC (Ab ATCC 19606 (strain I); Table 1, control strain, read-out: MIC Ab ATCC 19606): 5 µg/mL (≈ 10.3 µM)

O=C(O)c1cn(C2CC2)c2cc(N3CCNCC3)c(F)cc2c1=O [CIP, ciprofloxacin, reference compound]
bacteriostatic or bactericidal (time-kill) (Ab ATCC 19606 [8]; 1×MIC and 4×MIC, up to 24 h): bactericidal | reduction of colony count (Ab ATCC 19606 [8]; time-kill): 4100 fold | MIC (S. aureus ATCC 25923; Table 5, Mueller-Hinton medium, B = S. aureus ATCC 25923, read-out: MIC strain B): ≤ 0.0625 µg/mL | MIC (P. aeruginosa ATCC 27853; Table 5, Mueller-Hinton medium, G = P. aeruginosa ATCC 27853, read-out: MIC strain G): 0.25 µg/mL (≈ 0.754 µM) | MIC (B. anthracis Sterne F32; STERNEF32, read-out: MIC strain A): 1 µg/mL (≈ 3.02 µM) | MIC ([4]; Table 5, Mueller-Hinton medium, C = S. epidermidis ATCC 12228, read-out: MIC strain C): ≤ 0.0625 µg/mL | MIC ([6]; Table 5, Mueller-Hinton medium, J = A. baumannii BAA1605, read-out: MIC strain J): 2 µg/mL (≈ 6.04 µM) | MIC (S. enterica ATCC 14028; Table 5, Mueller-Hinton medium, H = S. enterica ATCC 14028, read-out: MIC strain H): ≤ 0.0625 µg/mL | MIC (E. coli MC1061): ≤ 0.0625 µg/mL | MIC (Ab ATCC 19606 [9]): 2 µg/mL (≈ 6.04 µM) | MIC (Ab ATCC 19606 (strain I); Table 5, Mueller-Hinton medium, I = A. baumannii ATCC 19606, read-out: MIC strain I): 1 µg/mL (≈ 3.02 µM)
